Results: ChEMBL document CHEMBL1151710, “Sesquiterpenes from the sponge Axinyssa isabela” (2008)
Activity calls are given as the source filed them. No cut-off for these calls is given here.

tested on: MDA-MB-231; test: Cytotoxicity against human MDA-MB-231 cells at 10 ug/ml by SRB assay; assay type: functional, cell-based

| SMILES | Activity |
| --- | --- |
| C[C@H]1CC[C@H](O)C2=CC(=O)[C@H]3[C@H](C3(C)C)[C@@]21C | inactive |
| C[C@H]1CCCC2=C[C@H](C#N)[C@H]3[C@H](C3(C)C)[C@@]21C | inactive |
| C[C@H]1CCCC2=CC(=O)[C@H]3[C@H](C3(C)C)[C@@]21C | inactive |
| C=C1CCC[C@]2(C)CC[C@@H](C(=C)C)[C@H](N=C=S)[C@@H]12 | inactive |
| C=C(C)[C@]1(O)CC[C@@]2(C)CCC[C@@](C)(N=C=S)[C@@H]2C1 | inactive |
| C=C(C)[C@H]1CC[C@@]2(C)CCC[C@@](C)(N=C=S)[C@@H]2C1 | inactive |
| C[C@H]1CC[C@@H](O)C2=CC(=O)[C@H]3[C@H](C3(C)C)[C@@]21C | inactive |
| C[C@H]1CCC[C@]2(O)[C@@H](O)C(=O)[C@H]3[C@H](C3(C)C)[C@]12C | inactive |
| CC(C)=CCCC(C)(N=C=S)[C@H]1CC=C(C)CC1 (some centres not stated) | inactive |
| C[C@H]1CC[C@@H](OO)C2=CC(=O)[C@H]3[C@H](C3(C)C)[C@@]21C | inactive |

tested on: A549; test: Cytotoxicity against human A549 cells by SRB assay; assay type: functional

| SMILES | GI50 [µM] |
| --- | --- |
| C=C(C)[C@]1(OO)CC[C@@]2(C)CCC[C@@](C)(N=C=S)[C@@H]2C1 [AXINISOTHIOCYANATE N] | 32.6 |
| COc1cccc2c1C(=O)c1c(O)c3c(c(O)c1C2=O)C[C@@](O)(C(=O)CO)C[C@@H]3O[C@H]1C[C@H](N)[C@H](O)[C@H](C)O1 [DOXORUBICIN] | 0.1 |
| C[C@H]1CC(=O)C=C2[C@H]3O[C@H]3[C@H]3[C@H](C3(C)C)[C@@]21C [AXINYSONE E] | 38.7 |

tested on: HT-29; test: Cytotoxicity against human HT-29 cells by SRB assay; assay type: functional

| SMILES | GI50 [µM] |
| --- | --- |
| COc1cccc2c1C(=O)c1c(O)c3c(c(O)c1C2=O)C[C@@](O)(C(=O)CO)C[C@@H]3O[C@H]1C[C@H](N)[C@H](O)[C@H](C)O1 [DOXORUBICIN] | 0.1 |
| C[C@H]1CC(=O)C=C2[C@H]3O[C@H]3[C@H]3[C@H](C3(C)C)[C@@]21C [AXINYSONE E] | 38.3 |

tested on: MDA-MB-231; test: Cytotoxicity against human MDA-MB-231 cells by SRB assay; assay type: functional

| SMILES | GI50 [µM] |
| --- | --- |
| C=C(C)[C@]1(OO)CC[C@@]2(C)CCC[C@@](C)(N=C=S)[C@@H]2C1 [AXINISOTHIOCYANATE N] | 33.3 |
| COc1cccc2c1C(=O)c1c(O)c3c(c(O)c1C2=O)C[C@@](O)(C(=O)CO)C[C@@H]3O[C@H]1C[C@H](N)[C@H](O)[C@H](C)O1 [DOXORUBICIN] | 0.1 |

tested on: HT-29; test: Cytotoxicity against human HT-29 cells at 10 ug/ml by SRB assay; assay type: functional, cell-based

| SMILES | Activity |
| --- | --- |
| C[C@H]1CC[C@H](O)C2=CC(=O)[C@H]3[C@H](C3(C)C)[C@@]21C | inactive |
| C[C@H]1CCCC2=C[C@H](C#N)[C@H]3[C@H](C3(C)C)[C@@]21C | inactive |
| C[C@H]1CCCC2=CC(=O)[C@H]3[C@H](C3(C)C)[C@@]21C | inactive |
| C=C1CCC[C@]2(C)CC[C@@H](C(=C)C)[C@H](N=C=S)[C@@H]12 | inactive |
| C=C(C)[C@]1(O)CC[C@@]2(C)CCC[C@@](C)(N=C=S)[C@@H]2C1 | inactive |
| C=C(C)[C@H]1CC[C@@]2(C)CCC[C@@](C)(N=C=S)[C@@H]2C1 | inactive |
| C[C@H]1CC[C@@H](O)C2=CC(=O)[C@H]3[C@H](C3(C)C)[C@@]21C | inactive |
| C[C@H]1CCC[C@]2(O)[C@@H](O)C(=O)[C@H]3[C@H](C3(C)C)[C@]12C | inactive |
| CC(C)=CCCC(C)(N=C=S)[C@H]1CC=C(C)CC1 (some centres not stated) | inactive |
| C[C@H]1CC[C@@H](OO)C2=CC(=O)[C@H]3[C@H](C3(C)C)[C@@]21C | inactive |

tested on: A549; test: Cytotoxicity against human A549 cells at 10 ug/ml by SRB assay; assay type: functional, cell-based

| SMILES | Activity |
| --- | --- |
| C[C@H]1CC[C@H](O)C2=CC(=O)[C@H]3[C@H](C3(C)C)[C@@]21C | inactive |
| C[C@H]1CCCC2=C[C@H](C#N)[C@H]3[C@H](C3(C)C)[C@@]21C | inactive |
| C[C@H]1CCCC2=CC(=O)[C@H]3[C@H](C3(C)C)[C@@]21C | inactive |
| C=C1CCC[C@]2(C)CC[C@@H](C(=C)C)[C@H](N=C=S)[C@@H]12 | inactive |
| C=C(C)[C@]1(O)CC[C@@]2(C)CCC[C@@](C)(N=C=S)[C@@H]2C1 | inactive |
| C=C(C)[C@H]1CC[C@@]2(C)CCC[C@@](C)(N=C=S)[C@@H]2C1 | inactive |
| C[C@H]1CC[C@@H](O)C2=CC(=O)[C@H]3[C@H](C3(C)C)[C@@]21C | inactive |
| C[C@H]1CCC[C@]2(O)[C@@H](O)C(=O)[C@H]3[C@H](C3(C)C)[C@]12C | inactive |
| CC(C)=CCCC(C)(N=C=S)[C@H]1CC=C(C)CC1 (some centres not stated) | inactive |
| C[C@H]1CC[C@@H](OO)C2=CC(=O)[C@H]3[C@H](C3(C)C)[C@@]21C | inactive |
